Laboratory results as given in patent US6649595B2, “Regulation of biological events using novel compounds” (ARIAD Gene Therapeutics, Inc., priority 1995, dated 2003).
Like-named read-outs stand apart in the source and are kept apart here. One block for each molecule: values may come before it.

Key:
[1] = tested on: transfected HT1080 cells (hGH target gene) transplanted into nu/nu mice; assay: Rapamycin-dependent production of hGH in mice; assay type: in vivo
Text: In Vivo Methods: Animals, husbandry, and general procedures. Male nu/nu mice were obtained from Charles River Laboratories (Wilmington, Mass.) and allowed to acclimate for five days prior to experimentation. They were housed under sterile conditions, were allowed free access to sterile food and sterile water throughout the entire experiment, and were handled with sterile techniques throughout.
To transplant transiently transfected cells into mice, 2×10^6 transfected HT1080 cells, were suspended in […] PBS/0.1% BSA/0.1% glucose buffer, and administered into four intramuscular sites (approximately […] per site) on the haunches and flanks of the animals. Control mice received equivalent volume injections of buffer alone.
The accuracy of the dosing solutions was confirmed by HPLC analysis prior to intravenous administration into the tail veins. […] In addition, other control mice, bearing transfected cells, received only the rapamycin vehicle.
Blood was collected by either anesthetizing or sacrificing mice via CO2 inhalation. Anesthetized mice were used to collect […] of blood by cardiac puncture. The mice were revived and allowed to recover for subsequent blood collections. Sacrificed mice were immediately exsanguinated. Blood samples were allowed to clot for 24 hours, at 4° C., and sera were collected following centrifugation at 1000×g for 15 minutes. Serum hGH was measured by the Boehringer Mannheim non-isotopic sandwich ELISA (Cat No. 1 585 878). […] Recommended assay instructions were followed.
Mice were administered transfected HT1080 cells as described above. […] The four remaining doses were given under anesthesia, immediately subsequent to blood collection, at 16, 32, 48, and 64 hours. […] Experimental animals and their control counterparts were each assigned to one of two groups. Each of the two experimental groups and two control groups received identical drug or vehicle treatments, respectively. The groups differed in that blood collection times were alternated between the two groups to reduce the frequency of blood collection for each animal.

[2] = Rapamycin pharmacokinetics in mice; assay type: in vivo
[3] = tested on: HT1080 cells expressing M30 / M31 (FRAP-FKBP-Fas) constructs; assay: Rapamycin-regulated apoptosis of stably transfected HT1080 cells; assay type: cell-based, human; settings: with 50 ng/ml actinomycin D, about 20 hours, alamar blue
Text: (f) Rapamycin-regulated apoptosis of stable transsfected human HT1080 cells in culture XbaI-BamHI fragments from constructs A30 and A31 (d, table 1) were cloned into pCM to generate M30 and M31, constructs that direct the expression of MT5FasSE and MT6FasSE, where M denotes a myristoylation domain (see this example sections A.1. and A.8.) and other abbreviations are as described in d, table 1. EcoRI-BamHI fragments containing these expression cassettes were then cloned into the retroviral vector pSMN3 (Example 7). […] HT1080 cells were infected with viral stock and selected with G418.
The media was removed and replaced with 100 μl of media containing 10% alamar blue dye. Plates were incubated as before, and the extent of cell viability assessed periodically by spectrophotometric determination of OD at 570 nm and 600 nm on a microtiter plate reader. Typically reading was continued until control (untreated) wells are at OD 0.2-0.4 after subtraction of blank.

[4] = target: T1, FKBPwt (Homo sapiens, UniProt P62942); assay: Competitive fluorescence polarization (FP) binding assay of rapalogs to FKBP; settings: for IC50: read-out: FKBPwt FP binding assay IC50
T1 construct: made in house

[5] = =IC50/IC50 of rapamycin, C7 rapalogs

T1 sequence (P62942 whole entry): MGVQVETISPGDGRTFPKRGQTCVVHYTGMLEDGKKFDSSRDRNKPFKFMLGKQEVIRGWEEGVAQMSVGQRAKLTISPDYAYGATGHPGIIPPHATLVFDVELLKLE

SMILES: CO[C@H]1C[C@@H]2CC[C@@H](C)[C@@](O)(O2)C(=O)C(=O)N2CCCC[C@H]2C(=O)O[C@H]([C@H](C)C[C@@H]2CC[C@@H](O)[C@H](OC)C2)CC(=O)[C@H](C)/C=C(\C)[C@@H](O)[C@@H](OC)C(=O)[C@H](C)C[C@H](C)/C=C/C=C/C=C/1C [rapamycin, Rapamycin]
- production of hGH in mice ([1]; 0.01-10.0 mg/kg intravenous, serum 17 hours after dosing): dose-responsive production of hGH
- time after treatment at which serum hGH remained detectable ([1]; single 10.0 mg/kg dose): 42 h
- time at which serum hGH was observed ([1]; single 10.0 mg/kg dose): within four hours
- time of peak serum hGH ([1]; single 10.0 mg/kg dose): eight hours
- peak serum hGH level ([1]; single 10.0 mg/kg dose, eight hours): over one hundred times the sensitivity limit of the hGH ELISA
- predicted steady-state trough concentration of rapamycin ([2]; 10.0 mg/kg at 16-hour intervals, after two doses): 1.7 µg/mL
- half-life ([2]; nu/nu, mouse, in vivo, mice, intravenous): 4.6 h
- survival of stably transfected cells [3]: potently reduced

- fold loss in affinity (cf rapamycin) [4, 5]: 1.3
- IC50 ([4]; C7 rapalogs): 2.9 nM
SMILES: CO[C@@H]1C[C@H](C[C@@H](C)[C@@H]2CC(=O)[C@H](C)/C=C(\C)[C@@H](O)[C@@H](OC)C(=O)[C@H](C)C[C@H](C)/C=C/C=C/C=C(\C)[C@@H](c3ccc(C(C)(C)C)s3)C[C@@H]3CC[C@@H](C)[C@@](O)(O3)C(=O)C(=O)N3CCCC[C@H]3C(=O)O2)CC[C@H]1O [Compound 41]

- fold loss in affinity (vs rapamycin) ([4]; =IC50/IC50 of rapamycin, C24 analogs, Table 4): 1287
- IC50 ([4]; rapamycin C24 analogs, Table 4): 2960 nM
SMILES: CCO/N=C1/C[C@@H]([C@H](C)C[C@@H]2CC[C@@H](O)[C@H](OC)C2)OC(=O)[C@@H]2CCCCN2C(=O)C(=O)[C@]2(O)O[C@@H](CC[C@H]2C)C[C@H](OC)/C(C)=C/C=C/C=C/[C@@H](C)C[C@@H](C)C(=O)[C@H](OC)[C@H](O)/C(C)=C/[C@H]1C [Compound 7, Rapamycin (E and Z)-24-(O-ethyloxime)]

- fold loss in affinity (cf rapamycin) [4, 5]: 1.0
- IC50 ([4]; C7 rapalogs): 2.4 nM
SMILES: CCc1ccc([C@@H]2C[C@@H]3CC[C@@H](C)[C@@](O)(O3)C(=O)C(=O)N3CCCC[C@H]3C(=O)O[C@H]([C@H](C)C[C@@H]3CC[C@@H](O)[C@H](OC)C3)CC(=O)[C@H](C)/C=C(\C)[C@@H](O)[C@@H](OC)C(=O)[C@H](C)C[C@H](C)/C=C/C=C/C=C/2C)s1 [Compound 39]
